Experimental data from ChEMBL document CHEMBL1821572, “Discovery of a novel series of selective HCN1 blockers” (Bioorg Med Chem Lett, 2011).

Assays:
[1] = molecular target: T1, Potassium/sodium hyperpolarization-activated cyclic nucleotide-gated channel 1 (Homo sapiens, UniProt O60741); assay: Inhibition of human HCN1 heterologously expressed in HEK-293 cells after 30 mins by VIPR assay; type: cell-based, HEK293
T1 sequence (O60741 whole entry): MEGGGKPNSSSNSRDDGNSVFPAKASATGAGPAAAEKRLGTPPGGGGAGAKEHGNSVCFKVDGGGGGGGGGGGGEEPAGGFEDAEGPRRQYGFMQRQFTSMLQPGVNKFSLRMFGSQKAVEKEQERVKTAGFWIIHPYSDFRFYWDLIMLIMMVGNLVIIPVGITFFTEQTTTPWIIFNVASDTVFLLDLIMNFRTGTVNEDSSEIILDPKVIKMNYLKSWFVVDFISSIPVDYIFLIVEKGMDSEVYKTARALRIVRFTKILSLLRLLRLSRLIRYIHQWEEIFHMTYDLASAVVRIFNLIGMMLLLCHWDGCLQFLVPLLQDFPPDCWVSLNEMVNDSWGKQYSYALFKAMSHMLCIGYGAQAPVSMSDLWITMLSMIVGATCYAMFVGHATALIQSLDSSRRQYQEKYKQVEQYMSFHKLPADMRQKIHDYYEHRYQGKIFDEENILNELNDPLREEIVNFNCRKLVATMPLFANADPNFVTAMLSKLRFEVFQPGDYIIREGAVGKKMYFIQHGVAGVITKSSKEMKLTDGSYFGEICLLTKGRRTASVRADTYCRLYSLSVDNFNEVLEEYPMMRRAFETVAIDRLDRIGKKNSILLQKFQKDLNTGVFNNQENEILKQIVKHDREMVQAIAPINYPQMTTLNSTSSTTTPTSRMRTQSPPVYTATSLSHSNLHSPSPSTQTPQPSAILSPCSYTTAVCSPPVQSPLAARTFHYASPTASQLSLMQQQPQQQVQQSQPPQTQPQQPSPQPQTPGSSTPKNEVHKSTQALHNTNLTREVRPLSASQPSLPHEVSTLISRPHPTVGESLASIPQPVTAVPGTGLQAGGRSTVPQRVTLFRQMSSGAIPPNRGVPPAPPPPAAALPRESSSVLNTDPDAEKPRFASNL

[2] = system: Mus musculus; assay: Antiallodynic activity in ip dosed C57BL/6 mouse spared-nerve injury model assessed as reduction of tactile allodynia after 60 mins; type: functional; settings: C57BL/6, ip, 1 h
[3] = organism: Mus musculus; assay: Toxicity in C57BL/6 mouse assessed as induction of bradycardia after 50 mins by ECG study; type: organism-based; settings: in vivo

CCOc1ccccc1C(=O)NCC1(N2CCNCC2)CCCCC1
IC50 [1]: 398 nM
ED50 [2]: 6 mg/kg
ED20 [3]: 25 mg/kg
